Experiments:
bedstraw = experiment: Test B pre/postemergence bedstraw; type: in vivo, Galium aparine
Method in brief: (§1)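 Test chemicals in a non-phytotoxic solvent mixture with surfactant were sprayed preemergence onto planted seeds and postemergence onto plants 2 to 18 cm tall (1- to 4-leaf stage). After twelve to sixteen days in a greenhouse, injury was visually rated against untreated controls from 0 (no effect) to 10 (complete control).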

blackgrass = experiment: Test B pre/postemergence blackgrass; type: in vivo, Alopecurus myosuroides
Method in brief: as §1

surinam grass = experiment: Test B pre/postemergence surinam grass; type: in vivo, Brachiaria decumbens
Method in brief: as §1

cocklebur = experiment: Test B pre/postemergence cocklebur; type: in vivo, Xanthium strumarium
Method in brief: as §1

corn = experiment: Test B pre/postemergence corn; type: in vivo, Zea mays
Method in brief: as §1

morningglory = experiment: Test B pre/postemergence morningglory; type: in vivo, Ipomoea hederacea
Method in brief: as §1

pigweed = experiment: Test B pre/postemergence pigweed; type: in vivo, Amaranthus retroflexus
Method in brief: as §1

rape = experiment: Test B pre/postemergence rape; type: in vivo, Brassica napus
Method in brief: as §1

soybean = experiment: Test B pre/postemergence soybean; type: in vivo, Glycine max
Method in brief: as §1

sugar beet = experiment: Test B pre/postemergence sugar beet; type: in vivo, Beta vulgaris
Method in brief: as §1

velvetleaf = experiment: Test B pre/postemergence velvetleaf; type: in vivo, Abutilon theophrasti
Method in brief: as §1

wild oat = experiment: Test B pre/postemergence wild oat; type: in vivo, Avena fatua
Method in brief: as §1

purple nutsedge = experiment: Test B pre/postemergence purple nutsedge; type: in vivo, Cyperus rotundus
Method in brief: as §1

rice = experiment: Test B flood test rice; type: in vivo, Oryza sativa
Method in brief: (§2)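 Plants were grown to the 2-leaf stage before treatment with test chemical, then held in a greenhouse for twelve to sixteen days. Injury was visually rated against untreated controls on a 0–10 scale, where 0 is no effect and 10 is complete control.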

smallflower flatsedge = experiment: Test B flood test smallflower flatsedge; type: in vivo, Cyperus difformis
Method in brief: as §2

bamyardgrass = experiment: Test B flood test barnyardgrass; type: in vivo, Echinochloa crus-galli
Method in brief: as §2

[1] = Postemergence, Rate 125 g/ha, scale 0 to 10, 0 is no effect, 10 is complete control
[2] = Preemergence, Rate 62 g/ha, scale of 0 to 10 where 0 is no effect and 10 is complete control
[3] = Preemergence, Rate 250 g/ha, scale of 0 to 10 where 0 is no effect and 10 is complete control
[4] = Rate 62 g/ha, Postemergence, scale 0 to 10 (0 no effect, 10 complete control)
[5] = Rate 250 g/ha, Postemergence, scale of 0 to 10 where 0 is no effect and 10 is complete control
[6] = Rate 500 g/ha, Postemergence, scale 0 to 10, 0 no effect, 10 complete control
[7] = Preemergence, Rate 500 g/ha, scale of 0 to 10 where 0 is no effect and 10 is complete control
[8] = Rate 62 g/ha, headed Pre-emergence (flood test species), scale 0 to 10 (0 no effect, 10 complete control)
[9] = Rate 125 g/ha, Pre-emergence, flood test species, scale 0 to 10 where 0 is no effect and 10 is complete control
[10] = Rate 250 g/ha, Pre-emergence, flood-test species, scale 0 to 10, 0 is no effect, 10 is complete control
[11] = Rate 500 g/ha, Pre-emergence, flood test species, scale 0 to 10 (0 no effect, 10 complete control)

CC(C)N(C(=O)n1oc(=O)n(-c2ccc3ccccc3c2)c1=O)c1ccc(F)cc1F [Compound 335]
0: Plant response rating, Bedstraw (bedstraw; [1]) | Bedstraw plant response rating (bedstraw; [2]) | Bedstraw plant response rating (0 to 10 scale) (bedstraw; Preemergence, Rate 125 g/ha) | Bedstraw plant response rating (bedstraw; [3]) | Bedstraw plant response rating (bedstraw; [4]) | Plant response rating, Bedstraw (bedstraw; [5]) | Plant response rating, Blackgrass (blackgrass; [1]) | Blackgrass plant response rating (blackgrass; [2]) | Blackgrass plant response rating (0 to 10 scale) (blackgrass; Preemergence, Rate 125 g/ha) | Blackgrass plant response rating (blackgrass; [3]) | Blackgrass plant response rating (blackgrass; [7]) | Blackgrass plant response rating (blackgrass; [4]) | Plant response rating, Blackgrass (blackgrass; [5]) | Plant response rating, Blackgrass (blackgrass; [6]) | Plant response rating, B. signalgrass (surinam grass; [1]) | B. signalgrass plant response rating (surinam grass; [2]) | B. signalgrass plant response rating (0 to 10 scale, 0 is no effect, 10 is complete control) (surinam grass; Preemergence, Rate 125 g/ha) | B. signalgrass plant response rating (surinam grass; [3]) | B. signalgrass plant response rating (surinam grass; [7]) | B. signalgrass plant response rating (surinam grass; [4]) | Plant response rating, B. signalgrass (surinam grass; [5]) | Plant response rating, B. signalgrass (surinam grass; [6]) | Plant response rating, Cocklebur (cocklebur; [1]) | Cocklebur plant response rating (cocklebur; [2]) | Cocklebur plant response rating (0 to 10 scale) (cocklebur; Preemergence, Rate 125 g/ha) | Cocklebur plant response rating (cocklebur; [3]) | Cocklebur plant response rating (cocklebur; [7]) | Cocklebur plant response rating (cocklebur; [4]) | Plant response rating, Cocklebur (cocklebur; [6]) | Plant response rating, Corn (corn; [1]) | Corn plant response rating (corn; [2]) | Corn plant response rating (0 to 10 scale) (corn; Preemergence, Rate 125 g/ha) | Corn plant response rating (corn; [3]) | Corn plant response rating (corn; [7]) | Corn plant response rating (corn; [4]) | Plant response rating, Corn (corn; [6]) | Plant response rating, Morningglory (morningglory; [1]) | Morningglory plant response rating (morningglory; [2]) | Morningglory plant response rating (0 to 10 scale) (morningglory; Preemergence, Rate 125 g/ha) | Morningglory plant response rating (morningglory; [3]) | Morningglory plant response rating (morningglory; [7]) | Morningglory plant response rating (morningglory; [4]) | Plant response rating, Morningglory (morningglory; [6]) | Plant response rating, Redroot pigweed (pigweed; [1]) | Redroot pigweed plant response rating (pigweed; [2]) | Redroot pigweed plant response rating (0 to 10 scale) (pigweed; Preemergence, Rate 125 g/ha) | Redroot pigweed plant response rating (pigweed; [3]) | Redroot pigweed plant response rating (pigweed; [7]) | Redroot pigweed plant response rating (pigweed; [4]) | Plant response rating, Redroot pigweed (pigweed; [6]) | Plant response rating, Rape (rape; [1]) | Rape plant response rating (rape; [2]) | Rape plant response rating (0 to 10 scale) (rape; Preemergence, Rate 125 g/ha) | Rape plant response rating (rape; [3]) | Rape plant response rating (rape; [7]) | Rape plant response rating (rape; [4]) | Plant response rating, Rape (rape; [6]) | Soybean plant response rating (soybean; [2]) | Soybean plant response rating (0 to 10 scale) (soybean; Preemergence, Rate 125 g/ha) | Soybean plant response rating (soybean; [3]) | Soybean plant response rating (soybean; [7]) | Plant response rating, Sugarbeets (sugar beet; [1]) | Sugarbeets plant response rating (sugar beet; [2]) | Sugarbeets plant response rating (0 to 10 scale) (sugar beet; Preemergence, Rate 125 g/ha) | Sugarbeets plant response rating (sugar beet; [3]) | Sugarbeets plant response rating (sugar beet; [7]) | Sugarbeets plant response rating (sugar beet; [4]) | Plant response rating, Sugarbeets (sugar beet; [6]) | Plant response rating, Velvetleaf (velvetleaf; [1]) | Velvetleaf plant response rating (velvetleaf; [2]) | Velvetleaf plant response rating (0 to 10 scale) (velvetleaf; Preemergence, Rate 125 g/ha) | Velvetleaf plant response rating (velvetleaf; [3]) | Velvetleaf plant response rating (velvetleaf; [7]) | Velvetleaf plant response rating (velvetleaf; [4]) | Plant response rating, Velvetleaf (velvetleaf; [6]) | Plant response rating, Wild oats (wild oat; [1]) | Wild oats plant response rating (wild oat; [2]) | Wild oats plant response rating (0 to 10 scale) (wild oat; Preemergence, Rate 125 g/ha) | Wild oats plant response rating (wild oat; [3]) | Wild oats plant response rating (wild oat; [7]) | Wild oats plant response rating (wild oat; [4]) | Plant response rating, Wild oats (wild oat; [6]) | Plant response rating, Nutsedge (purple nutsedge; [1]) | Nutsedge plant response rating (purple nutsedge; [2]) | Nutsedge plant response rating (0 to 10 scale) (purple nutsedge; Preemergence, Rate 125 g/ha) | Nutsedge plant response rating (purple nutsedge; [3]) | Nutsedge plant response rating (purple nutsedge; [7]) | Nutsedge plant response rating (purple nutsedge; [4]) | Plant response rating, Nutsedge (purple nutsedge; [6]) | Rice plant response rating (rice; [8]) | Rice plant response rating (rice; [9]) | Rice plant response rating (rice; [10]) | Rice plant response rating (rice; [11]) | S. Flatsedge plant response rating (smallflower flatsedge; [8]) | S. Flatsedge plant response rating (smallflower flatsedge; [9]) | S. Flatsedge plant response rating (smallflower flatsedge; [10]) | S. Flatsedge plant response rating (smallflower flatsedge; [11]) | Barnyardgrass plant response rating (bamyardgrass; [8]) | Barnyardgrass plant response rating (bamyardgrass; [9]) | Barnyardgrass plant response rating (bamyardgrass; [10])
1: Soybean plant response rating (soybean; [4])
4: Plant response rating, Bedstraw (bedstraw; [6]) | Barnyardgrass plant response rating (bamyardgrass; [11])
2: Plant response rating, Soybean (soybean; [1]) | Plant response rating, Soybean (soybean; [6])

Source: US6737383B1, “Herbicidal oxadiazolidines” (priority 1999, dated 2004)
